According to article PMC12446476 (Nature Communications, 2025):
Where “and” joins values, the source holds several entries; their conditions need not be identical. Identical values can stand only once.

Experiments:
S. aureus ATCC 29213 = assay: S. aureus neutropenic murine thigh infection model; type: in vivo, mouse; conditions: S. aureus ATCC 29213, daily dose, 300 µg/mL ceftriaxone
Protocol: The S. aureus neutropenic murine thigh infection model was performed in accordance with the Guide for Care and Use of Laboratory Animals[75]. Animal rooms were maintained at a temperature range of 20–24 °C and humidity between 30% and 70%, with 12 h light/dark cycles. Female ICR mice (BioLASCO Taiwan Co., Ltd.) were rendered neutropenic via IP injection of cyclophosphamide four days before infection (150 mg/kg) and again one day before infection (100 mg/kg). Animals were anaesthetised with isoflurane (3–5%), then inoculated intramuscularly with S. aureus ATCC 29213 (~1 × 10^5 CFU/mouse). […] Animals were sacrificed via CO2 asphyxiation at either 2 h (baseline), 26 and/or 50 h post-infection. Thigh tissues were harvested and homogenised in 3 mL sterile PBS (pH 7.4). Bacterial burdens were determined by performing 10-fold serial dilutions and plating on nutrient agar plates.

N. gonorrhoeae = N. gonorrhoeae murine vaginal infection model, efficacy; type: in vivo, mouse
Protocol: The N. gonorrhoeae female mouse vaginal model[45] was performed in accordance with the Guide for Care and Use of Laboratory Animals[75]. Animal rooms were maintained at a temperature range of 20–24 °C and humidity between 30% and 70%, with 12 h light/dark cycles. Ovariectomized BALB/c female mice (5–6 weeks, BioLASCO Taiwan Co., Ltd.) were treated with estradiol (0.23 mg/mouse) two days before infection and on the day of infection. Ovariectomized mice were used to avoid staging mice before treating them with estradiol. Beginning two days prior to infection and maintained until the end of the study, animals were treated twice daily with streptomycin (1.2 mg/mouse) and vancomycin (0.6 mg/mouse) each via intraperitoneal (IP) injection and received trimethoprim sulfate in the drinking water (0.4 mg/mL) to control vaginal microflora. Animals were anesthetised with pentobarbital (80 mg/kg), the vagina was rinsed with 50 mM HEPES (pH 7.4), and then inoculated with N. gonorrhoeae in pre-warmed PBS (0.02 mL/mouse containing ~1 × 10^5 CFU).
Control groups received either a single IP injection of ceftriaxone or 5% dextrose (vehicle) twice daily. Animals were sacrificed via CO2 asphyxiation at either 2 h (baseline), 26 and/or 50 h post-infection. Vaginal lavage was performed twice with 200 µL GC broth containing 0.05% saponin to recover bacteria. Bacterial burden in the lavage fluids was determined by performing 10-fold serial dilutions and plating on chocolate agar plates. Four strains were assessed using the model; ATCC 700825 is naturally streptomycin-resistant, whereas AR Bank0179-15, AR Bank0181-17 and WHO X-07 are derivatives of AR Bank0179, AR Bank0181 and WHO X, respectively, that were engineered for streptomycin resistance for use in the model.

[1] = Data 4, N. gonorrhoeae WHO X-07, ovariectomized BALB/c, 5 mg/kg IP, QD, 24h, individual animals, 5 mg/kg
[2] = Data 4, N. gonorrhoeae WHO X-07, ovariectomized BALB/c, 333.33 mg/kg IP, TID, 24h, individual animals
[3] = Data 4, N. gonorrhoeae WHO X-07, ovariectomized BALB/c, 333.33 mg/kg IP, TID, 48h, individual animals, 333.33 mg/kg
[4] = N. gonorrhoeae AR Bank0179-15, vaginal lavage, individual mice, Ceftriaxone 0.5 mg/kg IP, QD, 24h
[5] = N. gonorrhoeae AR Bank0179-15, vaginal lavage, individual mice, Ceftriaxone 5 mg/kg IP, QD, 24h
[6] = N. gonorrhoeae AR Bank0179-15, vaginal lavage, individual mice, Ceftriaxone 5 mg/kg IP, QD, 48h
[7] = N. gonorrhoeae AR Bank0181-17, vaginal lavage, individual mice, Ceftriaxone 0.5 mg/kg IP, QD, 24h
[8] = N. gonorrhoeae AR Bank0181-17, vaginal lavage, individual mice, Ceftriaxone 5 mg/kg IP, QD, 24h
[9] = N. gonorrhoeae AR Bank0181-17, vaginal lavage, individual mice, Ceftriaxone 5 mg/kg IP, QD, 48h
[10] = N. gonorrhoeae ATCC 700825, vaginal lavage, individual mice, Ceftriaxone 1 mg/kg IP, QD, 24h
[11] = N. gonorrhoeae ATCC 700825, vaginal lavage, individual mice, Ceftriaxone 5 mg/kg IP, QD, 24h
[12] = N. gonorrhoeae ATCC 700825, vaginal lavage, individual mice, Ceftriaxone 5 mg/kg IP, QD, 48h

## CO/N=C(\C(=O)N[C@@H]1C(=O)N2C(C(=O)O)=C(CSc3nc(=O)c(=O)[nH]n3C)CS[C@H]12)c1csc(N)n1 [Ceftriaxone, reference compound]
S. aureus ATCC 29213; 24h
  Mean Diff. 0h vs. treatment, log10 CFU: 1.71
S. aureus ATCC 29213; 48h
  Mean Diff. 0h vs. treatment, log10 CFU: 2.684
N. gonorrhoeae; AR Bank0179-15, 0.5 µg/mL ceftriaxone, 24h
  Mean Diff. 0h vs. treatment, log10 CFU: 3.018
N. gonorrhoeae; AR Bank0179-15, 5 µg/mL ceftriaxone, 24h
  Mean Diff. 0h vs. treatment, log10 CFU: 3.186
N. gonorrhoeae; AR Bank0179-15, 5 µg/mL ceftriaxone, 48h
  Mean Diff. 0h vs. treatment, log10 CFU: 3.09
N. gonorrhoeae; AR Bank0181-17, 0.5 µg/mL ceftriaxone, 24h
  Mean Diff. 0h vs. treatment, log10 CFU: 0.924
N. gonorrhoeae; AR Bank0181-17, 5 µg/mL ceftriaxone, 24h
  Mean Diff. 0h vs. treatment, log10 CFU: 3.56
N. gonorrhoeae; AR Bank0181-17, 5 µg/mL ceftriaxone, 48h
  Mean Diff. 0h vs. treatment, log10 CFU: 3.56
N. gonorrhoeae; ATCC 700825, AR Bank0179-15, AR Bank0181-17
  efficacy against ceftriaxone-susceptible strains: effective
N. gonorrhoeae; ATCC 700825, 1 µg/mL ceftriaxone, 24h
  Mean Diff. 0h vs. treatment, log10 CFU: 2.882
N. gonorrhoeae; ATCC 700825, 5 µg/mL ceftriaxone, 24h
  Mean Diff. 0h vs. treatment, log10 CFU: 3.022
N. gonorrhoeae; ATCC 700825, 5 µg/mL ceftriaxone, 48h
  Mean Diff. 0h vs. treatment, log10 CFU: 3.082
N. gonorrhoeae; [1]
  CFU/mL lavage fluid: 1450000 CFU/mL lavage fluid and 400000 CFU/mL lavage fluid and 1290000 CFU/mL lavage fluid and 480000 CFU/mL lavage fluid and 620000 CFU/mL lavage fluid
  Log10(CFU/mL lavage fluid): 6.16 Log10(CFU/mL lavage fluid) and 5.60 Log10(CFU/mL lavage fluid) and 6.11 Log10(CFU/mL lavage fluid) and 5.68 Log10(CFU/mL lavage fluid) and 5.79 Log10(CFU/mL lavage fluid)
N. gonorrhoeae; [2]
  CFU/mL lavage fluid: <5.00E+00 CFU/mL lavage fluid
  Log10(CFU/mL lavage fluid): <0.70 Log10(CFU/mL lavage fluid)
N. gonorrhoeae; [3]
  CFU/mL lavage fluid: 35 CFU/mL lavage fluid and <5.00E+00 CFU/mL lavage fluid
  Log10(CFU/mL lavage fluid): 1.54 Log10(CFU/mL lavage fluid) and <0.70 Log10(CFU/mL lavage fluid)
N. gonorrhoeae; [4]
  CFU/mL lavage fluid: 5 CFU/mL and <5 CFU/mL and 35 CFU/mL
  Log10(CFU/mL lavage fluid): 0.7 Log10(CFU/mL lavage fluid) and <0.70 Log10(CFU/mL lavage fluid) and 1.54 Log10(CFU/mL lavage fluid)
N. gonorrhoeae; [5]
  CFU/mL lavage fluid: <5 CFU/mL
  Log10(CFU/mL lavage fluid): <0.70 Log10(CFU/mL lavage fluid)
N. gonorrhoeae; [6]
  CFU/mL lavage fluid: 5 CFU/mL and <5 CFU/mL and 15 CFU/mL
  Log10(CFU/mL lavage fluid): 0.7 Log10(CFU/mL lavage fluid) and <0.70 Log10(CFU/mL lavage fluid) and 1.18 Log10(CFU/mL lavage fluid)
N. gonorrhoeae; [7]
  CFU/mL lavage fluid: 255 CFU/mL and 195 CFU/mL and 3900 CFU/mL and 37000 CFU/mL and 6600 CFU/mL
  Log10(CFU/mL lavage fluid): 2.41 Log10(CFU/mL lavage fluid) and 2.29 Log10(CFU/mL lavage fluid) and 3.59 Log10(CFU/mL lavage fluid) and 4.57 Log10(CFU/mL lavage fluid) and 3.82 Log10(CFU/mL lavage fluid)
N. gonorrhoeae; [8]
  CFU/mL lavage fluid: <5 CFU/mL
  Log10(CFU/mL lavage fluid): <0.70 Log10(CFU/mL lavage fluid)
N. gonorrhoeae; [9]
  CFU/mL lavage fluid: <5 CFU/mL
  Log10(CFU/mL lavage fluid): <0.70 Log10(CFU/mL lavage fluid)
N. gonorrhoeae; [10]
  CFU/mL lavage fluid: 50 CFU/mL and 5 CFU/mL and <5 CFU/mL
  Log10(CFU/mL lavage fluid): 1.7 Log10(CFU/mL lavage fluid) and 0.7 Log10(CFU/mL lavage fluid) and <0.70 Log10(CFU/mL lavage fluid)
N. gonorrhoeae; [11]
  CFU/mL lavage fluid: <5 CFU/mL and 10 CFU/mL
  Log10(CFU/mL lavage fluid): <0.70 Log10(CFU/mL lavage fluid) and 1 Log10(CFU/mL lavage fluid)
N. gonorrhoeae; [12]
  CFU/mL lavage fluid: <5 CFU/mL
  Log10(CFU/mL lavage fluid): <0.70 Log10(CFU/mL lavage fluid)
N. gonorrhoeae; WHO X-07, 5 µg/mL ceftriaxone, 24h
  Mean Diff. 0h vs. treatment, log10 CFU: -1.846
N. gonorrhoeae; WHO X-07, 1000 µg/mL ceftriaxone, 24h
  Mean Diff. 0h vs. treatment, log10 CFU: 3.322
N. gonorrhoeae; WHO X-07, 1000 µg/mL ceftriaxone, 48h
  Mean Diff. 0h vs. treatment, log10 CFU: 3.154
N. gonorrhoeae; at doses equivalent to those effective against susceptible strains
  efficacy against ceftriaxone-resistant strain WHO X-07: ineffective
N. gonorrhoeae; dose with simulated fT > MIC of 2 h
  increase in log10CFU/mL at 24 h: 1.9 log10CFU/mL
N. gonorrhoeae; doses with simulated fT > MIC of 12 to 18 h
  reduction in log10CFU/mL at 24 h: 2.0 log10CFU/mL
N. gonorrhoeae; doses with simulated fT > MIC of >24 h
  reduction in log10CFU/mL at 24 h: 3.3 log10CFU/mL
N. gonorrhoeae; doses with simulated fT > MIC of ≥22 to 24 h
  reduction in log10CFU/mL at 24 h: 2.9 log10CFU/mL
